Data published in PMC6101033 (Neuron, 2017).

How the values were obtained:
[1] = tested on: calcium signaling in hippocampal neurons; assay: RCaMP calcium sensor imaging in hippocampal neurons; details: for baseline calcium in dendrites, VGCC blockers: all 1μM, sustained (1 min mean) ΔF/F of shaft ROIs, n=3–11 neurons, p<0.03 vs control imaging period; for inhibition of dendritic calcium in neurons lacking T-type channels: shCaV3.1-3.3, Figure S5E
RhoA = assay: RhoA2G FRET sensor imaging in hippocampal neurons; details: AP5 1μM + ADDLs; dendritic shaft; Figure S4E
[2] = tested on: CA1 pyramidal neurons (Schaffer collateral-CA1 synapses)
T-type calcium channels [3] = assay: T-type currents in acute hippocampal slices; set-up: species or system mouse; details: NNC added to slice; Figure S8E
T-type calcium channels [4] = assay: whole-cell T-type; assay type: cell-based, Long-Evans rat; details: for T-type current inhibition, blockers: 1μM; for LV currents in neurons lacking all T-type channels: shCaV3.1-3.3, Figure S6F
hippocampal neurons [5] = assay: cell health and dendritic spine integrity under blockers; assay type: cell-based, Long-Evans rat; details: hippocampal slice cultures; data not shown
T-type channel = details: ref Yamamoto et al, 2013; cited from earlier work
LTP = details: ref Moriguchi et al., 20012; cited from earlier work
hippocampal neurons [6] = details: ref Wills et al., 2012; cited from earlier work
[7] = AP5 1μM + ADDLs, dendritic shaft, Figure S4E

## NC(CCCP(=O)(O)O)C(=O)O (stereo not drawn) [AP5]
[1]; [7]
  acute calcium response to ADDLs under NMDAR inhibition: acute calcium responses to ADDLs in the dendritic shaft of neurons are lost
  long-term calcium inhibition by ADDLs under NMDAR inhibition: long-term activation of RhoA and inhibition of calcium signaling is preserved
RhoA
  long-term RhoA activation by ADDLs under NMDAR inhibition: long-term activation of RhoA and inhibition of calcium signaling is preserved

## CC(C)[C@H]1c2ccc(F)cc2CC[C@@]1(CCN(C)CCCc1nc2ccccc2[nH]1)OC(=O)C1CC1 [NNC]
[1]
  baseline calcium in dendrites, VGCC blockers: elicited the largest reductions in baseline calcium in dendrites
  inhibition of dendritic calcium in neurons lacking T-type channels: eliminates NNC and TTA-P2’s inhibition of calcium signaling in dendrites
[2]; NNC 10μM + ADDL + Y27632 (10μM) or NgR^NNN, p<0.04
  LTP rescue under ADDLs by ROCK inhibition or NgR loss, effect of NNC: reverses the capacity of ROCK inhibition (Y27632) or NgR loss (NgR^NNN) to rescue neurons from ADDL-mediated LTP reduction
[2]; NNC 10μM + ADDL, fEPSC 55–60 min, n=6–8 animals/slices per condition
  LTP, NNC combined with ADDLs: no greater inhibition of LTP than either ADDL or NNC alone
[2]; NNC 10μM, 6 months mice, fEPSC 55–60 min, p<0.001 vs CON
  LTP, T-type channel blocker: inhibits LTP in acute hippocampal slices
T-type calcium channels [3]
  LV currents in acute hippocampal slice: inhibits LV currents in our acute hippocampal slice recording
T-type calcium channels [4]
  T-type current inhibition, blockers: ADDL’s inhibition of T-type currents was comparable to T-type channel blockers NNC and TTA-P2
  LV currents in neurons lacking all T-type channels: neither NNC or TTAP2 inhibit LV currents in neurons lacking all T-type channels
Hippocampal neurons [5]
  effects on dendritic spines, NNC: no pathological effects on dendritic spines in hippocampal slice cultures

## O=C1N=C2C=CC=CN2C12Cc1ccccc1C2 [STK101, spiro[imidazo-[1,2-a]pyridine-3,2-indan]-2(3H)-one]
T-type channel
  T-type channel agonism: T-type channel agonist
LTP
  LTP: enhances LTP

## CC1(C)C[C@@H](CN2CCC(F)(CNC(=O)c3cc(Cl)cc(Cl)c3)CC2)CCO1 [TTA-P2]
[1]
  baseline calcium in dendrites, VGCC blockers: elicited the largest reductions in baseline calcium in dendrites
  inhibition of dendritic calcium in neurons lacking T-type channels: eliminates NNC and TTA-P2’s inhibition of calcium signaling in dendrites
T-type calcium channels [4]
  T-type current inhibition, blockers: ADDL’s inhibition of T-type currents was comparable to T-type channel blockers NNC and TTA-P2
  LV currents in neurons lacking all T-type channels: neither NNC or TTAP2 inhibit LV currents in neurons lacking all T-type channels

## C[C@@H](N)[C@H]1CC[C@H](C(=O)Nc2ccncc2)CC1 [Y27632]
[1]; Y27632 1μM, 10 minutes, then ADDLs 150nM, n=3 neurons
  ADDL inhibition of dendritic calcium under ROCK inhibition: ADDL-mediated inhibition of dendritic calcium signaling in neurons is lost
[1]; Y27632 1μM, 1 min mean ΔF/F, shaft ROIs
  RCaMP activity in the dendritic shaft, ROCK inhibitor: marked rise in RCaMP activity in the dendritic shaft of neurons
[1]; washout 10 minutes, then ADDLs 150nM, n=3 neurons, p<0.001 vs CON
  ADDL inhibition of dendritic calcium after washout of Y27632: following a washout of Y27632, ADDL’s inhibition of dendritic calcium signaling is restored
Hippocampal neurons [6]
  neuron health, Y27632: no deleterious effects on neuron health
[2]; Y27632 1μM preincubation + ADDLs 150 nM, fEPSC 55–60 min, p<0.05 vs ADDL
  LTP, reversal of ADDL inhibition: reverses ADDL’s inhibition of LTP
[2]; Y27632 1μM, control neurons, no ADDLs, p<0.03 vs CON (WT)
  LTP, ROCK inhibitor alone: blocks LTP
T-type calcium channels [4]; Y27632 1μM + ADDLs
  reversal of ADDL block of T-type currents: reverses ADDL’s block of T-type channel currents

## COCCOC(=O)C1=C(C)NC(C)=C(C(=O)OC(C)C)C1c1cccc([N+](=O)[O-])c1 (stereo not drawn) [nimodipine]
[2]; Nimodipine 1μM, 6 months mice, fEPSC 55–60 min
  LTP, L-type channel blocker: no effect on LTP

## lysophosphatidic acid [LPA]
T-type calcium channels [4]; LPA 1μM vs ADDLs 150nM, 14–18 DIV
  T-type currents, RhoA activator: inhibits T-type currents with a magnitude comparable to that of ADDLs
